US8394765B2, “Methods of treating obesity with two different anti-obesity agents” (Amylin Pharmaceuticals LLC, priority 2004, dated 2013)

Experiments:
[1] = DIO rats, amylin and phentermine, body weight and body composition (Example 4); type: in vivo, rat
Procedure: The combination of amylin and catecholaminergic agonist, phentermine, were also tested for effects on changes in body weight and body composition. Phentermine is classically referred to as a catecholaminergic agonist as it actually hits NA/5-HT receptors. DIO male rats were fattened and divided into four treatment groups, as described above. Each group was implanted with subcutaneous osmotic mini-pumps and/or inserted with an oral gavage, designed to deliver vehicle, phentermine (10 mg/kg/day), amylin (100 μg/kg/day) or phentermine (10 mg/kg/day)+amylin (100 μg/kg/day) for a 14 day period. The mini-pump contained either vehicle (50% DMSO in water) or amylin while the oral gavage administered either sterile water or phentermine. Body weight was recorded daily and body composition was measured prior to and after drug treatment using NMR.

[2] = 24-week randomized, double-blind, active-drug-controlled study of pramlintide and metreleptin in overweight and obese subjects (Example 8); type: in vivo, human
Procedure: To evaluate inter alia the safety, tolerability and effect of the combination of an amylin agonist (pramlintide) and a leptin (metreleptin) on changes in body weight, a 24-week, randomized, double-blind, active-drug-controlled, multicenter study was conducted under USFDA approved protocols. Secondary objectives of the study were the determination of the pharmacokinetics of pramlintide and leptin, waist circumference, rate of change in body weight, and patient reported outcomes including for example without limitation perception of well-being related to weight change and mood. The study enrolled overweight and obese subjects with defined BMI ([…]), with enrollment statistics as provided in Table 2. […] Subjects treated with pramlintide/metreleptin lost an average of 25 pounds from the start of the 24-week study compared with an average of 17 pounds for subjects treated with pramlintide alone.
In an initial lead-in phase, all subjects received dietary instructions and treatment with pramlintide at 180 mcg BID for two weeks, followed by pramlintide at 360 mcg BID for two weeks. Subjects who completed the 4-week lead-in period and who lost 2-8 percent body weight during this period were eligible to continue the study. The term “enrolled” (Table 2) refers to subjects (N=177) receiving at least one dose of pramlintide during the lead-in period. The term “non-randomized” refers to subjects not continuing in the study past the lead-in period. The term “evaluable” refers to subjects who completed Visit 9 (Week 16) study procedures and adequately complied with the study protocol.
After the 4-week lead-in period, for the remaining 20 weeks of the study the subjects were randomized in a 2:2:1 ratio to one of three groups with BID treatment of 1) pramlintide 360 mcg/metreleptin 5 mg (“Leptin+Pramlintide”); 2) pramlintide 360 mcg/placebo (“Pramlintide”); or 3) metreleptin 5 mg/placebo (“Leptin”).

[3] = DIO (Levin) rats, amylin and CB-1 antagonist rimonabant, body weight and body composition (Example 5); type: in vivo, rat
Procedure: These rats were developed by Barry Levin from a line of Crl:CD®(SD)BR rats that are prone to become obese on a diet relatively high in fat and energy. They were housed individually in shoebox cages at 22 C in a 12/12-hour light dark cycle. […] Rats were habituated to oral gavage for 1 week prior to treatment. Rimonabant was administered at a range of doses (0.1, 0.3, 1.0, 3.0. 10 mg/kg/day) by oral gavage. Amylin (dissolved in 50% DMSO sterile water) or vehicle was administered by mini-pump (100 μg/kg/day). Rimonabant was always delivered just prior to lights out. Food intake and body weight were measured at 1 and 2 weeks post-treatment. Body composition was measured prior to and after drug treatment using NMR (Echo Medical Systems, Houston, Tex.). For body composition measurements, rats were briefly placed (˜1 min) in a well-ventilated plexiglass tube that was then inserted into a specialized rodent NMR machine. Rats were scanned prior to pump implantation and on the final day of the experiment. This enabled the calculation of changes in actual grams of fat and dry lean tissue (e.g., grams of body fat after treatment−grams of body fat at baseline=change in grams of body fat) and changes in % body composition for fat and dry lean tissue (e.g., % body fat after treatment−% body fat at baseline=change in % body fat).

[4] = DIO rats, amylin and sibutramine, body weight and body composition (Example 4); type: in vivo, rat
Procedure: Rat amylin was dissolved in 50% DMSO in sterile water and sibutramine was dissolved in sterile water. Each group was implanted with subcutaneous osmotic mini-pumps designed to deliver vehicle, sibutramine (3 mg/kg/day) or amylin (100 μg/kg/day) for a 14 day period. Body weight and food intake were recorded daily. Body composition was measured prior to and after drug treatment using NMR (Echo Medical Systems, Houston, Tex.). For body composition measurements, rats were briefly placed (˜1 min) in a well-ventilated plexiglass tube that was then inserted into a specialized rodent NMR machine. Rats were scanned prior to pump implantation and on the final day of the experiment. This enabled the calculation of changes in actual grams of fat and dry lean tissue (e.g., grams of body fat after treatment−grams of body fat at baseline=change in grams of body fat) and changes in % body composition for fat and dry lean tissue (e.g., % body fat after treatment−% body fat at baseline=change in % body fat).

[5] = DIO rats, amylin and PYY(3-36), body weight and body composition (Example 7); type: in vivo, rat
Procedure: Each group was implanted with subcutaneous osmotic mini-pumps, designed to deliver vehicle, PYY(3-36) (1000 μg/kg/day), amylin (100 μg/kg/day) or PYY(3-36) (1000 μg/kg/day)+amylin (100 μg/kg/day) for a 14 day period. PYY(3-36) was administered by mini-pump at a range of doses (100, 200, 400, 800, 1000 μg/kg/day). Amylin 100 μg/kg/day (dissolved in 50% DMSO sterile water), PYY(3-36) (dissolved in 50% DMSO sterile water) or vehicle was administered by mini-pump. Food intake and body weight was recorded daily. Body composition was measured prior to and after drug treatment using NMR (Echo Medical Systems, Houston, Tex.). For body composition measurements, rats were briefly placed (˜1 min) in a well-ventilated plexiglass tube that was then inserted into a specialized rodent NMR machine. Rats were scanned prior to pump implantation and on the final day of the experiment. This enabled the calculation of changes in actual grams of fat and dry lean tissue (e.g., grams of body fat after treatment−grams of body fat at baseline […]) and changes in % body composition for fat and dry lean tissue (e.g., % body fat after treatment−% body fat at baseline=change in % body fat).

[6] = DIO rats, amylin and exendin-4 analog, body weight and body composition (Example 6); type: in vivo, rat
Procedure: […]. Prior to drug administration rats had typically attained a mean body weight of 500 g Exendin-4 analog was administered by minipump at a range of doses (0.3, 1, 3, 10, 30 μg/kg/day). Amylin (dissolved in 50% DMSO in water) or vehicle was administered by mini-pump (100 μg/kg/day). Body weight and food intake was recorded daily. Body composition was measured prior to and after drug treatment using NMR (Echo Medical Systems, Houston, Tex.). For body composition measurements, rats were briefly placed (˜1 min) in a well-ventilated plexiglass tube that was then inserted into a specialized rodent NMR machine. Rats were scanned prior to pump implantation and on the final day of the experiment. This enabled the calculation of changes in actual grams of fat and dry lean tissue (e.g., grams of body fat after treatment−grams of body fat at baseline=change in grams of body fat) and changes in % body composition for fat and dry lean tissue (e.g., % body fat after treatment−% body fat at baseline=change in % body fat).

[7] = compared to human amylin; cited from earlier work
[8] = treated test animals; e.g. provoking marked hyperlactemia followed by hyperglycemia; cited from earlier work
[9] = 4-week pramlintide lead-in, arm of later randomization

CC(C)(N)Cc1ccccc1 [phentermine]
changes in body fat (fat mass) ([1]; after two weeks, FIG. 11B): modest amount of fat mass loss | changes in body protein (lean mass) ([1]; after two weeks, FIG. 11C): unchanged or tended to be lost | vehicle-corrected decrease in percent body weight ([1]; two weeks, phentermine 10 mg/kg/day oral gavage, amylin 100 μg/kg/day, FIG. 11A): ~5%

CC[C@H](C)[C@H](NC(=O)[C@@H]1CCCN1C(=O)CNC(=O)[C@H](Cc1ccccc1)NC(=O)[C@H](CC(N)=O)NC(=O)[C@H](CC(N)=O)NC(=O)[C@H](CO)NC(=O)[C@H](CO)NC(=O)[C@H](Cc1c[nH]cn1)NC(=O)[C@@H](NC(=O)[C@H](CC(C)C)NC(=O)[C@H](Cc1ccccc1)NC(=O)[C@H](CC(N)=O)NC(=O)[C@H](C)NC(=O)[C@H](CC(C)C)NC(=O)[C@H](CCCNC(=N)N)NC(=O)[C@H](CCC(N)=O)NC(=O)[C@@H](NC(=O)[C@H](C)NC(=O)[C@@H]1CSSC[C@H](NC(=O)[C@@H](N)CCCCN)C(=O)N[C@@H](CC(N)=O)C(=O)N[C@@H]([C@@H](C)O)C(=O)N[C@@H](C)C(=O)N[C@@H]([C@@H](C)O)C(=O)N1)[C@@H](C)O)C(C)C)C(=O)N[C@@H](CC(C)C)C(=O)N1CCC[C@H]1C(=O)N1CCC[C@H]1C(=O)N[C@H](C(=O)N[C@@H](CC(N)=O)C(=O)N[C@H](C(=O)NCC(=O)N[C@@H](CO)C(=O)N[C@@H](CC(N)=O)C(=O)N[C@H](C(=O)N[C@@H](Cc1ccc(O)cc1)C(N)=O)[C@@H](C)O)C(C)C)[C@@H](C)O [pramlintide]
rate of change in body weight, early rate ([2]; 0-12 weeks, evaluable population, FIG. 24): −0.23±0.04 kg/week | Mean Change in Body Weight ([2]; 4-week lead-in period in which all subjects received pramlintide (180 then 360 mcg BID), arm of later randomization): -3.65 kg | % Weight Loss During Lead-in <5% (share of subjects) [2, 9]: 77% | % Weight Loss During Lead-in ≧5% (share of subjects) [2, 9]: 23% | rate of change in body weight, late rate ([2]; 12-20 weeks, evaluable population, FIG. 24): −0.02±0.04 kg/week | weight reduction effect toward the end of the study (late rate, in words) ([2]; 12-20 weeks, FIG. 24): approached a late rate of zero | course of weight loss towards the end of the study ([2]; human subjects, 24-week study): weight had stabilized towards the end of the 24-week study | body weight reduction on average ([2]; human subjects, end of 24-week study, pramlintide 360 mcg BID, metreleptin 5 mg BID, p<0.001): 8.4% | average weight lost from the start of the 24-week study ([2]; human subjects, pramlintide 360 mcg BID, metreleptin 5 mg BID): 17 pounds

Cc1c(C(=O)NN2CCCCC2)nn(-c2ccc(Cl)cc2Cl)c1-c1ccc(Cl)cc1 [rimonabant]
changes in body fat (fat mass) ([3]; after two weeks, FIG. 12B): Fat mass loss was evident | changes in body protein (lean mass) ([3]; after two weeks, FIG. 12C): relatively equivalent increase in lean (protein) mass | vehicle-corrected decrease in percent body weight ([3]; two weeks, rimonabant 3 mg/kg/day oral gavage, amylin 100 μg/kg/day, FIG. 12A): ~4%

CC(C)CC(N(C)C)C1(c2ccc(Cl)cc2)CCC1 (stereo not drawn) [sibutramine]
changes in body fat (fat mass) ([4]; after two weeks, FIG. 10B): Fat mass loss was evident | changes in body protein (lean mass) ([4]; after two weeks, FIG. 10C): relatively unchanged | vehicle-corrected decrease in percent body weight ([4]; two weeks, sibutramine 3 mg/kg/day, amylin 100 μg/kg/day, FIG. 10A): ~6%

PYY(3-36)
changes in body fat (fat mass loss) ([5]; after two weeks, order PYY(3-36) alone, amylin alone, combination, FIG. 16B): Increasing amount of fat mass loss | vehicle-corrected decrease in percent body weight ([5]; two weeks, PYY(3-36) 1000 μg/kg/day, amylin 100 μg/kg/day, FIG. 16A): ~9%

^14Leu-exendin-4 [Exendin-4 analog]
changes in body fat (fat mass) ([6]; after two weeks, FIG. 15B): Fat mass loss was evident | changes in body protein (lean mass) ([6]; after two weeks, FIG. 15C): relatively equivalent increase in lean (protein) mass | vehicle-corrected decrease in percent body weight ([6]; two weeks, exendin-4 analog 10 μg/kg/day, amylin 100 μg/kg/day, FIG. 15A): ~6%

^18Arg^25,28Pro-h-amylin (KCNTATCATQRLANFLVRSSNNFGPILPSTNVGSNTY)
solubility and stability characteristics [7]: more desirable solubility and stability characteristics | amylin activity in vivo [8]: show amylin activity in vivo

^25Pro^26Val^28,29 Pro-h-amylin (KCNTATCATQRLANFLVHSSNNFGPVLPPTNVGSNTY)
solubility and stability characteristics [7]: more desirable solubility and stability characteristics

^28Pro-h-amylin (KCNTATCATQRLANFLVHSSNNFGAILPSTNVGSNTY)
amylin activity in vivo [8]: show amylin activity in vivo

des-^1Lys-h-amylin (CNTATCATQRLANFLVHSSNNFGAILSSTNVGSNTY)
amylin activity in vivo [8]: show amylin activity in vivo

des-^1Lys^18Arg^25,28Pro-h-amylin (CNTATCATQRLANFLVHRSNNFGPILPSTNVGSNTY)
amylin activity in vivo [8]: show amylin activity in vivo

metreleptin
weight reduction effect toward the end of the study (late rate, in words) ([2]; 12-20 weeks, FIG. 24): approached a late rate of zero
